Here are results for nine compounds from patent US20220395496A1 (Hoffmann-La Roche Inc., priority 2019, published 2022).

The nature of data set [1]: Human microsome stability assay. The data set is classed as in vitro ADME. Conditions: human liver microsomes, 1 μM test compound, 0.5 mg/mL protein, 37° C., pH 7.4. How it is done:
Human Microsome Stability Assay
The human microsomal stability assay is used for early assessment of metabolic stability of a test compound in human liver microsomes. Compounds with high metabolic stability are considered to be desirable as they can provide favorable in vivo PK profiles and thus sufficient exposure in the targeted tissues or organs
Human liver microsomes (Cat. NO.: 452117, Corning, USA; Cat. NO.: H2610, Xenotech, USA) were preincubated with test compound for 10 minutes at 37° C. in 100 mM potassium phosphate buffer, pH 7.4. The reactions were initiated by adding NADPH regenerating system. The final incubation mixtures contained 1 μM test compound, 0.5 mg/mL liver microsomal protein, 1 mM MgCl2, 1 mM NADP, 1 unit/mL isocitric dehydrogenase and 6 mM isocitric acid in 100 mM potassium phosphate buffer, pH 7.4. After incubation times of 0, 3, 6, 9, 15 and 30 minutes at 37° C., 300 μL of cold acetonitrile (including internal standard) was added to 100 μL incubation mixture to terminate the reaction. Following precipitation and centrifugation, the amount of compound remaining in the samples were determined by LC-MS/MS. Controls of no NADPH regenerating system at zero and 30 minutes were also prepared and analyzed.
(Microsomes from liver hold many membrane-bound enzymes, among them those of drug oxidation.)

In another data set the target is T1, human TLR8 (Homo sapiens, UniProt Q9NR97).
T1 sequence (Q9NR97 27-1041): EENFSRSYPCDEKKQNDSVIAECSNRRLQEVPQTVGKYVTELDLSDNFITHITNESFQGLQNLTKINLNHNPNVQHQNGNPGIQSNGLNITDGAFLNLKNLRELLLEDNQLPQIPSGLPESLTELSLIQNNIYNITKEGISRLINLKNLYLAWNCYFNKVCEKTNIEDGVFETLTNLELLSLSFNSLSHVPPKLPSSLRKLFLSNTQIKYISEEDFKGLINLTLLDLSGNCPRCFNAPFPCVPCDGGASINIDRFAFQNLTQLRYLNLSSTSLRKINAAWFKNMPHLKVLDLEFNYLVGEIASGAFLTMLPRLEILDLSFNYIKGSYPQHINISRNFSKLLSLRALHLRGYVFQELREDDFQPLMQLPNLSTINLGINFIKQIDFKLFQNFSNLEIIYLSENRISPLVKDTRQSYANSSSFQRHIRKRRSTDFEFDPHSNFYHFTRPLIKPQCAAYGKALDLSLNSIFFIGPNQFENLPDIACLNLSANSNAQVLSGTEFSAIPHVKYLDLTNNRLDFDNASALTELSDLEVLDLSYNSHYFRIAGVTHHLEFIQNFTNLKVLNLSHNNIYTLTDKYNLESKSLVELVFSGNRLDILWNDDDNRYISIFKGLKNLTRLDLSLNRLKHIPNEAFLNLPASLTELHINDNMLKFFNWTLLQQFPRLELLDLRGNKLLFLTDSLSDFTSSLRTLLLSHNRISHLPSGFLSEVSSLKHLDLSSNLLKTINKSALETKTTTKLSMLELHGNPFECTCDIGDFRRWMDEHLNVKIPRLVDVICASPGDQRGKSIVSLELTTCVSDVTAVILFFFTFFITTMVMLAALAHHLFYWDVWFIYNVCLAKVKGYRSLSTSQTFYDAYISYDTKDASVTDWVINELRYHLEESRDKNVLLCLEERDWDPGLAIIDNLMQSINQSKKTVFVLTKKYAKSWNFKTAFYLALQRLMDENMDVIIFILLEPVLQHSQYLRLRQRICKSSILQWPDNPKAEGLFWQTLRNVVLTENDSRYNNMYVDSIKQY
The experiment in a line: HEK293-Blue-hTLR-8 cells assay (SEAP reporter, R848 stimulation). The data set is classed as cell-based. Conditions: HEK293-Blue-hTLR8 cells, R848, 20 hrs; lowest tested concentration 0.0032. The protocol:
The following tests were carried out in order to determine the activity of the compounds of this invention in HEK293-Blue-hTLR-7/8/9 cells assay.
HEK293-Blue-hTLR-8 Cells Assay:
A stable HEK293-Blue-hTLR-8 cell line was purchased from InvivoGen (Cat. #: hkb-htlr8, San Diego, Calif., USA). These cells were originally designed for studying the stimulation of human TLR8 by monitoring the activation of NF-κB. A SEAP (secreted embryonic alkaline phosphatase) reporter gene was placed under the control of the IFN-β minimal promoter fused to five NF-κB and AP-1-binding sites. The SEAP was induced by activating NF-κB and AP-1 via stimulating HEK-Blue hTLR8 cells with TLR8 ligands. Therefore the reporter expression was declined by TLR8 antagonist under the stimulation of a ligand, such as R848, for incubation of 20 hrs. The cell culture supernatant SEAP reporter activity was determined using QUANTI-Blue™kit (Cat. #: rep-qb1, Invivogen, San Diego, Calif., USA) at a wavelength of 640 nm, a detection medium that turns purple or blue in the presence of alkaline phosphatase.
HEK293-Blue-hTLR8 cells were incubated at a density of […] cells/mL in a volume of 170 μL in a 96-well plate in Dulbecco's Modified Eagle's medium (DMEM) containing 4.5 g/L glucose, 50 U/mL penicillin, […], […], 2 mM L-glutamine, 10% (v/v) heat-inactivated fetal bovine serum with addition of 20 μL test compound in a serial dilution in the presence of final DMSO at 1% and 10 μL of 60 uM R848 in above DMEM, perform incubation under 37° C. in a CO2 incubator for 20 hrs. Then 20 μL of the supernatant from each well was incubated with 180 μL Quanti-blue substrate solution at 37° C. for 2 hrs and the absorbance was read at 620˜655 nm using a spectrophotometer. The signalling pathway that TLR8 activation leads to downstream NF-κB activation has been widely accepted, and therefore similar reporter assay was modified for evaluating TLR8 antagonist.

pIC50: −log10 of the molar value.

Usually pIC50 stands for −log10 of the IC50, conventionally taken in molar units. A higher pIC50 goes with a small IC50. For `C[C@H]1C[C@@H](NCc2ccccc2)CN(c2ccc(C#N)c3ncccc23)C1` [Example R1, reference compound], the HLM in data set [1] is 17.3 mL/min/kg. Also, the pIC50 against human TLR8 was 7.70.
For `C[C@H]1C[C@@H](N2Cc3cc(N4CCNCC4)cnc3C2)CN(c2ccc(C#N)c3ncccc23)C1` [Example 23, 5-[(3S,5R)-3-methyl-5-(3-piperazin-1-yl-5,7-dihydropyrrolo[3,4-b]pyridin-6-yl)-1-piperidyl]quinoline-8-carbonitrile], the HLM in data set [1] worked out at 7.3 mL/min/kg. The compound further showed a pIC50 against human TLR8 of 8.40.
In the case of `C[C@H]1C[C@@H](N2Cc3ccccc3C2)CN(c2ccc(C#N)c3ncccc23)C1` [Example R2, reference compound], in data set [1], the HLM was 18.4 mL/min/kg. Further, the negative-log IC50 (pIC50) on human TLR8 is 6.96.
Turning to `C[C@H]1C[C@@H](NCc2cnc(N3CCNCC3)nc2)CN(c2ccc(C#N)c3ncccc23)C1` [Example 17, 5-[(3S,5R)-3-methyl-5-[(2-piperazin-1-ylpyrimidin-5-yl)methylamino]-1-piperidyl]quinoline-8-carbonitrile], in data set [1], the HLM amounted to 6.8 mL/min/kg. This compound also had a pIC50 against human TLR8 above 8.49.
The like results for `C[C@H]1C[C@@H](NCc2ccc(N3CCNCC3)cc2)CN(c2ccc(C#N)n3nccc23)C1` [Example 21, 4-[(3S,5R)-3-methyl-5-[(4-piperazin-1-ylphenyl)methylamino]-1-piperidyl]pyrazolo[1,5-a]pyridine-7-carbonitrile] were, in that order, 6.2 mL/min/kg and 7.38.
The like results for `C[C@H]1C[C@@H](NCc2ccc(N3CCNCC3)cc2)CN(c2ccc(C#N)c3ncccc23)C1` [Example 1, 5-[(3S,5R)-3-methyl-5-[(4-piperazin-1-ylphenyl)methylamino]1-piperidyl]quinoline-8-carbonitrile] were, in that order, 7.3 mL/min/kg and above 8.49.
Regarding `C[C@H]1C[C@@H](NCc2ccc(C3CCNCC3)cc2)CN(c2ccc(C#N)c3ncccc23)C1` [Example 2, 5-[(3S,5R)-3-methyl-5-[[4-(4-piperidyl)phenyl]methylamino]-1-piperidyl]quinoline-8-carbonitrile], in data set [1], the HLM came to 7.0 mL/min/kg. In addition, the pIC50 against human TLR8 was 8.22.
Turning to `C[C@H]1C[C@@H](NCc2ccc(N3CCNCC3)nc2)CN(c2ccc(C#N)c3ncccc23)C1` [Example 10], the HLM in data set [1] was 7.4 mL/min/kg. Also, the negative logarithm of the IC50 (pIC50) on human TLR8 is above 8.49.
The like results for `C[C@H]1C[C@@H](N2Cc3ccc(N4CCNCC4)cc3C2)CN(c2ccc(C#N)c3ncccc23)C1` [Example 12, 5-[(3S,5R)-3-methyl-5-(5-piperazin-1-ylisoindolin-2-yl)-1-piperidyl]quinoline-8-carbonitrile] were, in that order, 6.2 mL/min/kg and above 8.49.
